Experimental data taken from ChEMBL document CHEMBL2434896, “Carbonic anhydrase inhibitors. Synthesis of heterocyclic 4-substituted pyridine-3-sulfonamide derivatives and their inhibition of the human cytosolic isozymes I and II and transmembrane tumor-associated isozymes IX and XII” (Eur J Med Chem, 2013).
Activity calls are given as the source filed them. The calls are words filed in the database; no cut-off is given here.

Assays:
[1] = tested on: SK-MEL-5; assay: Growth inhibition of human SK-MEL-5 cells at 10 uM after 48 hrs by sulforhodamine B assay; format: functional
[2] = tested on: SK-MEL-28; assay: Growth inhibition of human SK-MEL-28 cells at 10 uM after 48 hrs by sulforhodamine B assay; format: functional, cell-based
[3] = tested on: M14; assay: Growth inhibition of human M14 cells at 10 uM after 48 hrs by sulforhodamine B assay; format: functional
[4] = tested on: UACC-62; assay: Growth inhibition of human UACC62 cells at 10 uM after 48 hrs by sulforhodamine B assay; format: functional
[5] = tested on: Hs-578T; assay: Growth inhibition of human Hs 578T cells at 10 uM after 48 hrs by sulforhodamine B assay; format: functional
[6] = tested on: LOX IMVI; assay: Growth inhibition of human LOXIMVI cells at 10 uM after 48 hrs by sulforhodamine B assay; format: functional; settings: read-out: GI
[7] = tested on: UACC-257; assay: Growth inhibition of human UACC257 cells at 10 uM after 48 hrs by sulforhodamine B assay; format: functional
[8] = tested on: UO-31; assay: Growth inhibition of human UO31 cells at 10 uM after 48 hrs by sulforhodamine B assay; format: functional; settings: UO-31, 48 h, read-out: GI
[9] = tested on: MDA-MB-231; assay: Growth inhibition of human MDA-MB-231 cells at 10 uM after 48 hrs by sulforhodamine B assay; format: functional
[10] = tested on: HCT-15; assay: Growth inhibition of human HCT15 cells at 10 uM after 48 hrs by sulforhodamine B assay; format: functional
[11] = tested on: OVCAR-8; assay: Growth inhibition of human OVCAR8 cells at 10 uM after 48 hrs by sulforhodamine B assay; format: functional
[12] = tested on: Malme-3M; assay: Growth inhibition of human MALME-3M cells at 10 uM after 48 hrs by sulforhodamine B assay; format: functional
[13] = tested on: HOP-62; assay: Growth inhibition of human HOP62 cells at 10 uM after 48 hrs by sulforhodamine B assay; format: functional
[14] = tested on: SN12C; assay: Growth inhibition of human SN12C cells at 10 uM after 48 hrs by sulforhodamine B assay; format: functional
[15] = tested on: SK-MEL-2; assay: Growth inhibition of human SK-MEL-2 cells at 10 uM after 48 hrs by sulforhodamine B assay; format: functional
[16] = tested on: OVCAR-5; assay: Growth inhibition of human OVCAR5 cells at 10 uM after 48 hrs by sulforhodamine B assay; format: functional
[17] = tested on: HT-29; assay: Growth inhibition of human HT-29 cells at 10 uM after 48 hrs by sulforhodamine B assay; format: functional
[18] = tested on: SF-295; assay: Growth inhibition of human SF295 cells at 10 uM after 48 hrs by sulforhodamine B assay; format: functional
[19] = tested on: OVCAR-4; assay: Growth inhibition of human OVCAR4 cells at 10 uM after 48 hrs by sulforhodamine B assay; format: functional
[20] = tested on: RPMI-8226; assay: Growth inhibition of human RPMI8226 cells at 10 uM after 48 hrs by sulforhodamine B assay; format: functional
[21] = tested on: CCRF-CEM; assay: Growth inhibition of human CCRF-CEM cells at 10 uM after 48 hrs by sulforhodamine B assay; format: functional; settings: read-out: GI
[22] = tested on: SNB-19; assay: Growth inhibition of human SNB19 cells at 10 uM after 48 hrs by sulforhodamine B assay; format: functional
[23] = tested on: 786-0; assay: Growth inhibition of human 786-0 cells at 10 uM after 48 hrs by sulforhodamine B assay; format: functional; settings: 786-0, 48 h, read-out: GI
[24] = tested on: NCI/ADR-RES; assay: Growth inhibition of human NCI-ADR-RES cells at 10 uM after 48 hrs by sulforhodamine B assay; format: functional
[25] = tested on: RXF 393; assay: Growth inhibition of human RXF393 cells at 10 uM after 48 hrs by sulforhodamine B assay; format: functional
[26] = tested on: SW-620; assay: Growth inhibition of human SW620 cells at 10 uM after 48 hrs by sulforhodamine B assay; format: functional
[27] = tested on: MOLT-4; assay: Growth inhibition of human MOLT4 cells at 10 uM after 48 hrs by sulforhodamine B assay; format: functional; settings: MOLT-4, 48 h, read-out: GI
[28] = tested on: MDA-MB-468; assay: Growth inhibition of human MDA-MB-468 cells at 10 uM after 48 hrs by sulforhodamine B assay; format: functional
[29] = tested on: SR; assay: Growth inhibition of human SR cells at 10 uM after 48 hrs by sulforhodamine B assay; format: functional; settings: read-out: GI
[30] = tested on: NCI-H460; assay: Growth inhibition of human NCI-H460 cells at 10 uM after 48 hrs by sulforhodamine B assay; format: functional
[31] = tested on: T47D; assay: Growth inhibition of human T47D cells at 10 uM after 48 hrs by sulforhodamine B assay; format: functional
[32] = tested on: PC-3; assay: Growth inhibition of human PC3 cells at 10 uM after 48 hrs by sulforhodamine B assay; format: functional
[33] = tested on: NCI-H322M; assay: Growth inhibition of human NCI-H322M cells at 10 uM after 48 hrs by sulforhodamine B assay; format: functional
[34] = tested on: COLO 205; assay: Growth inhibition of human COLO205 cells at 10 uM after 48 hrs by sulforhodamine B assay; format: functional
[35] = tested on: NCI-H522; assay: Growth inhibition of human NCI-H522 cells at 10 uM after 48 hrs by sulforhodamine B assay; format: functional
[36] = tested on: SK-OV-3; assay: Growth inhibition of human SKOV3 cells at 10 uM after 48 hrs by sulforhodamine B assay; format: functional
[37] = tested on: BT-549; assay: Growth inhibition of human BT549 cells at 10 uM after 48 hrs by sulforhodamine B assay; format: functional
[38] = tested on: SF-268; assay: Growth inhibition of human SF268 cells at 10 uM after 48 hrs by sulforhodamine B assay; format: functional
[39] = tested on: ACHN; assay: Growth inhibition of human ACHN cells at 10 uM after 48 hrs by sulforhodamine B assay; format: functional
[40] = tested on: K562; assay: Growth inhibition of human K562 cells at 10 uM after 48 hrs by sulforhodamine B assay; format: functional
[41] = tested on: HCT-116; assay: Growth inhibition of human HCT116 cells at 10 uM after 48 hrs by sulforhodamine B assay; format: functional
[42] = tested on: U-251; assay: Growth inhibition of human U251 cells at 10 uM after 48 hrs by sulforhodamine B assay; format: functional
[43] = tested on: HCC 2998; assay: Growth inhibition of human HCC2998 cells at 10 uM after 48 hrs by sulforhodamine B assay; format: functional
[44] = tested on: DU-145; assay: Growth inhibition of human DU145 cells at 10 uM after 48 hrs by sulforhodamine B assay; format: functional
[45] = tested on: TK-10; assay: Growth inhibition of human TK10 cells at 10 uM after 48 hrs by sulforhodamine B assay; format: functional
[46] = tested on: NCI-H23; assay: Growth inhibition of human NCI-H23 cells at 10 uM after 48 hrs by sulforhodamine B assay; format: functional
[47] = tested on: HOP-92; assay: Growth inhibition of human HOP92 cells at 10 uM after 48 hrs by sulforhodamine B assay; format: functional

SMILES: NS(=O)(=O)c1cnccc1N1CCN(c2ncccn2)CC1
- growth inhibition (GI) [1]: inactive
- growth inhibition (GI) [2]: inactive
- growth inhibition (GI) [3]: inactive
- growth inhibition (GI) [4]: inactive
- growth inhibition (GI) [5]: inactive
- inhibition of growth at 10 µM [6]: 4%
- growth inhibition (GI) [7]: inactive
- inhibition of growth at 10 µM [8]: 15%
- growth inhibition (GI) [9]: inactive
- growth inhibition (GI) [10]: inactive
- growth inhibition (GI) [11]: inactive
- inhibition of growth at 10 µM ([12]; read-out: GI): 6%
- growth inhibition (GI) [13]: inactive
- growth inhibition (GI) [14]: inactive
- growth inhibition (GI) [15]: inactive
- growth inhibition (GI) [16]: inactive
- growth inhibition (GI) [17]: inactive
- growth inhibition (GI) [18]: inactive
- growth inhibition (GI) [19]: inactive
- growth inhibition (GI) [20]: inactive
- inhibition of growth at 10 µM [21]: 10%
- inhibition of growth at 10 µM ([22]; SNB-19, 48 h, read-out: GI): 1%
- inhibition of growth at 10 µM [23]: 1%
- growth inhibition (GI) [24]: inactive
- growth inhibition (GI) [25]: inactive
- growth inhibition (GI) [26]: inactive
- inhibition of growth at 10 µM [27]: 6%
- growth inhibition (GI) [28]: inactive
- inhibition of growth at 10 µM [29]: 17%
- growth inhibition (GI) [30]: inactive
- growth inhibition (GI) [31]: inactive
- growth inhibition (GI) [32]: inactive
- growth inhibition (GI) [33]: inactive
- growth inhibition (GI) [34]: inactive
- inhibition of growth at 10 µM ([35]; NCI-H522, 48 h, read-out: GI): 2%
- growth inhibition (GI) [36]: inactive
- inhibition of growth at 10 µM ([37]; BT-549, 48 h, read-out: GI): 7%
- inhibition of growth at 10 µM ([38]; SF-268, 48 h, read-out: GI): 5%
- growth inhibition (GI) [39]: inactive
- growth inhibition (GI) [40]: inactive
- growth inhibition (GI) [41]: inactive
- growth inhibition (GI) [42]: inactive
- growth inhibition (GI) [43]: inactive
- growth inhibition (GI) [44]: inactive
- growth inhibition (GI) [45]: inactive
- growth inhibition (GI) [46]: inactive
- growth inhibition (GI) [47]: inactive

SMILES: COc1ccccc1N1CCN(c2ccncc2S(N)(=O)=O)CC1
- growth inhibition (GI) [1]: inactive
- growth inhibition (GI) [2]: inactive
- growth inhibition (GI) [3]: inactive
- inhibition of growth at 10 µM ([4]; UACC-62, 48 h, read-out: GI): 3%
- growth inhibition (GI) [5]: inactive
- inhibition of growth at 10 µM [6]: 2%
- growth inhibition (GI) [7]: inactive
- inhibition of growth at 10 µM [8]: 10%
- growth inhibition (GI) [9]: inactive
- growth inhibition (GI) [10]: inactive
- growth inhibition (GI) [11]: inactive
- growth inhibition (GI) [12]: inactive
- inhibition of growth at 10 µM ([13]; HOP-62, 48 h, read-out: GI): 2%
- inhibition of growth at 10 µM ([14]; read-out: GI): 11%
- inhibition of growth at 10 µM ([15]; SK-MEL-2, 48 h, read-out: GI): 5%
- inhibition of growth at 10 µM ([16]; OVCAR-5, 48 h, read-out: GI): 2%
- inhibition of growth at 10 µM ([17]; HT-29, 48 h, read-out: GI): 4%
- inhibition of growth at 10 µM ([18]; SF-295, 48 h, read-out: GI): 3%
- inhibition of growth at 10 µM ([19]; OVCAR-4, 48 h, read-out: GI): 2%
- inhibition of growth at 10 µM ([20]; RPMI-8226, 48 h, read-out: GI): 3%
- inhibition of growth at 10 µM [21]: 7%
- growth inhibition (GI) [22]: inactive
- inhibition of growth at 10 µM [23]: 3%
- growth inhibition (GI) [24]: inactive
- growth inhibition (GI) [25]: inactive
- growth inhibition (GI) [26]: inactive
- inhibition of growth at 10 µM [27]: 20%
- inhibition of growth at 10 µM ([28]; MDA-MB-468, 48 h, read-out: GI): 2%
- inhibition of growth at 10 µM [29]: 17%
- growth inhibition (GI) [30]: inactive
- inhibition of growth at 10 µM ([31]; read-out: GI): 2%
- inhibition of growth at 10 µM ([32]; PC-3, 48 h, read-out: GI): 10%
- growth inhibition (GI) [33]: inactive
- growth inhibition (GI) [34]: inactive
- growth inhibition (GI) [35]: inactive
- growth inhibition (GI) [36]: inactive
- growth inhibition (GI) [37]: inactive
- growth inhibition (GI) [38]: inactive
- growth inhibition (GI) [39]: inactive
- inhibition of growth at 10 µM ([40]; K562, 48 h, read-out: GI): 9%
- growth inhibition (GI) [41]: inactive
- inhibition of growth at 10 µM ([42]; U-251, 48 h, read-out: GI): 1%
- growth inhibition (GI) [43]: inactive
- growth inhibition (GI) [44]: inactive
- growth inhibition (GI) [46]: inactive
- growth inhibition (GI) [47]: inactive
